Test results reported in US6455550B1, “N-alkanoylphenylalanine derivatives” (Hoffmann-La Roche Inc., priority 1997, dated 2002).

The compounds below were run against T1, VLA-4 (α4β1 integrin) binding to immobilized VCAM-1 (Homo sapiens, UniProt P05556+P13612) (assay: VLA-4/VCAM-1 Screening Assay (solid-phase, dual antibody ELISA)). Details: IC50 nM, Ramos cell-derived VLA-4, recombinant human VCAM-1 coated plates, 2 hr at 37° C.
T1 construct: followed by 10 μl of Ramos cell-derived VLA-4; endogenous in cells; host or cells: Ramos cells (VLA-4 preparation derived from the cells)
T1 sequence (P13612 34-1032): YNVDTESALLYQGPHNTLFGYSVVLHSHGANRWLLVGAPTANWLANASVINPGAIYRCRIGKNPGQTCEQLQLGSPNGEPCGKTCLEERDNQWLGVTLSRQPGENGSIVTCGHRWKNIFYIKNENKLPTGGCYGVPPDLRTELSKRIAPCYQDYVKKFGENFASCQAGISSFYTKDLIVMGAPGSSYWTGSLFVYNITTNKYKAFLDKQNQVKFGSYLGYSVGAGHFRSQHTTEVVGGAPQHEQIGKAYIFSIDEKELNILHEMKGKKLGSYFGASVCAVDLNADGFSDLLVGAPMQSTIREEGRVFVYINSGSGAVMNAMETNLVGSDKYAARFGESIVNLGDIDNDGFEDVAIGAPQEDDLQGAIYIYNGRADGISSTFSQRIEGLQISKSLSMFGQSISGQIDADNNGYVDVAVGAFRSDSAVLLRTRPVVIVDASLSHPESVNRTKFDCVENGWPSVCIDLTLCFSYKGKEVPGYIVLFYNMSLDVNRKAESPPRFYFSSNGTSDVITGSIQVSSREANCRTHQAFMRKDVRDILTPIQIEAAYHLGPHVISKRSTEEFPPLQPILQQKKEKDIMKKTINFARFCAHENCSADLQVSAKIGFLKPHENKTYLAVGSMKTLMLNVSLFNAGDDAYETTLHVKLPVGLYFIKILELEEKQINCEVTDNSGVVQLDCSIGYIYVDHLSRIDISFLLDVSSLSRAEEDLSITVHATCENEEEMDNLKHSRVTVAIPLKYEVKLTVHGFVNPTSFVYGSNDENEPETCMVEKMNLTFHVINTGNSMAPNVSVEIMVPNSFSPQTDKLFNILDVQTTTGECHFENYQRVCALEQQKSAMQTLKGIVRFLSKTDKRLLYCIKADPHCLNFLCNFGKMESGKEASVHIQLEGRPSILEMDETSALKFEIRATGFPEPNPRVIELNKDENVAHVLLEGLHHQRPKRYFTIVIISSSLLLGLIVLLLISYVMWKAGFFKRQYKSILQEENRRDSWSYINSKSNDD
T1 sequence (P05556 21-798): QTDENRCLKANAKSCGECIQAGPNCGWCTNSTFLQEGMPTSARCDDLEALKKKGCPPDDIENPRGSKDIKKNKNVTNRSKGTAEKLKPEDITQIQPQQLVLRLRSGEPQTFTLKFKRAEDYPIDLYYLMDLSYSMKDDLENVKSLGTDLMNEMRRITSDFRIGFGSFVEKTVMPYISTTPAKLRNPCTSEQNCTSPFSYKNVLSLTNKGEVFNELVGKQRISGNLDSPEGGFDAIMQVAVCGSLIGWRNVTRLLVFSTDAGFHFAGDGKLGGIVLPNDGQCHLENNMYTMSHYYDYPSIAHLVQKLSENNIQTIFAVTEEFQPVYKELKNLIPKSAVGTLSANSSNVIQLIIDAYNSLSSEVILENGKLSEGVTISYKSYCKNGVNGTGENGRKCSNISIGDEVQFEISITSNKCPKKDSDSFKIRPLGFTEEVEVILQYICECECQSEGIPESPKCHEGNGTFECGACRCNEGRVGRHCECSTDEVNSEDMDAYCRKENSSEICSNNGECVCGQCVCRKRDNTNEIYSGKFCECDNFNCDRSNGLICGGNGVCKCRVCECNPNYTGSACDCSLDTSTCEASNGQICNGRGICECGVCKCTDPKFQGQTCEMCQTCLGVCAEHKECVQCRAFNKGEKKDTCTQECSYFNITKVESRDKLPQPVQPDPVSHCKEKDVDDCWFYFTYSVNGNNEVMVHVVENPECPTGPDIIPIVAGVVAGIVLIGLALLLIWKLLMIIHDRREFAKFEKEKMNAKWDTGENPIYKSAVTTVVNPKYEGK
Protocol: VLA-4 antagonist activity, defined as ability to compete for binding to immobilized VCAM-1 was quantitated using a solid-phase, dual antibody ELISA. VLA-4 (α4β1 integrin) bound to VCAM-1 was detected by a complex of anti-integrin β1 antibody: HRP-conjugated anti-mouse IgG: chromogenic substrate (K-Blue). Initially, this entailed coating 96 well plates (Nunc Maxisorp) with recombinant human VCAM-1 (0.4 μg in 100 μl PBS), sealing each plate and then allowing the plates to stand at 4° C for Å18 hr. […] On the day of assay, all plates were washed twice with VCAM Assay Buffer (200 μl/well of 50 mM Tris-HCl, 100 mM NaCl, 1 mM MnCl2, 0.05% Tween 20; pH 7.4). Test compounds were dissolved in 100% DMSO and then diluted 1:20 in VCAM Assay Buffer supplemented with 1 mg/mL BSA (i.e., final DMSO=5%). […] 100 μl per well of each dilution was added to the VCAM-coated plates, followed by 10 μl of Ramos cell-derived VLA-4. These plates were sequentially mixed on a platform shaker for 1 min, incubated for 2 hr at 37° C. and then washed four times with 200 μl/well VCAM Assay Buffer. 100 μl of mouse anti-human integrin β1 antibody was added to each well (0.6 μg/mL in VCAM Assay Buffer+1 mg/mL BSA) and allowed to incubate for 1 hr at 37° C. At the conclusion of this incubation period, all plates were washed four times with VCAM Assay Buffer (200 μl/well). A corresponding second antibody, HRP-conjugated goat anti-mouse IgG (100 μl per well @1:800 dilution in VCAM Assay Buffer+1 mg/mL BSA), was then added to each well, followed by a 1 hr incubation at room temperature and concluded by three washes (200 μl/well) with VCAM Assay Buffer. Color development was initiated by addition of 100 μl K-Blue per well (15 min incubation, room temp) and terminated by addition of 100 μl Red Stop Buffer per well. […] Results were calculated as % inhibition of total binding (i.e., VLA-4+VCAM-1 in the absence of test compound).
Cn1nnnc1-c1ccc(CC2(C(=O)N[C@@H](Cc3ccc(NC(=O)c4c(Cl)cccc4Cl)cc3)C(=O)O)CCCC2)cc1 [Example 55] showed an IC50 of 0.47 nM.
Cn1nnnc1-c1ccc(CC2(C(=O)N[C@@H](Cc3ccc(NC(=O)c4c(Cl)cccc4Cl)cc3)C(=O)O)CCC2)cc1 [Example 57] gave an IC50 of 0.42 nM.

Same assay, conditions: Ramos cell-derived VLA-4, recombinant human VCAM-1 coated plates, 2 hr at 37° C.; read-out: IC50
COc1ccc(CC2(C(=O)N[C@@H](Cc3ccc(NC(=O)c4c(Cl)cccc4Cl)cc3)C(=O)O)CCCC2)cc1 [Example 43, 4-[[(2,6-Dichlorophenyl)carbonyl]amino]-N-[[1-[(4-methoxyphenyl)methyl]cyclopentyl]carbonyl]-L-phenylalanine] was tested, and the IC50 was 0.63 nM.
For Cn1nnnc1-c1cccc(CC2(C(=O)N[C@@H](Cc3ccc(NC(=O)c4c(Cl)cccc4Cl)cc3)C(=O)O)CCC2)c1 [Example 56], the IC50 was 0.94 nM.

Each compound was assayed against T2, cell-surface VLA-4 (α4β1 integrin) on Ramos cells binding to immobilized VCAM-1 (Homo sapiens, UniProt P05556+P13612) (assay: Ramos (VLA-4)/VCAM-1 Cell-Based Screening Assay (cell adhesion)). Details: Calcein-AM labeled Ramos cells, VCAM-1 coated plates, 45 min at room temperature; read-out: IC50 in Ramos Cell Based Assay.
T2 construct: Ramos cells bearing cell-surface VLA-4; endogenous in cells; host or cells: Ramos cells (VLA-4); VCAM-1 purified from CHO cell culture media
T2 sequence (P13612 34-1032): as the sequence (P13612 34-1032) above
T2 sequence (P05556 21-798): as the sequence (P05556 21-798) above
Source text: Calcein-AM was purchased from Molecular Probes Inc.
VLA-4 (α4β1 integrin) antagonist activity, defined as ability to compete with cell-surface VLA-4 for binding to immobilized VCAM-1, was quantitated using a Ramos-VCAM-1 cell adhesion assay. Ramos cells bearing cell-surface VLA-4, were labeled with a fluorescent dye (Calcein-AM) and allowed to bind VCAM-1 in the presence or absence of test compounds.
Initially, this entailed coating 96 well plates (Nunc Maxisorp) with recombinant human VCAM-1 (100 ng in 100 μl PBS), sealing each plate and allowing the plates to stand at 4° C for Å18 hr. The VCAM-coated plates were subsequently washed twice with 0.05% Tween-20 in PBS, and then blocked for 1hr (room temperature) with 200 μl of Blocking Buffer (1% BSA/0.02% thimerosal) to reduce non-specific binding. Following the incubation with Blocking Buffer, plates were inverted, blotted and the remaining buffer aspirated. Each plate was then washed with 300 μl PBS, inverted and the remaining PBS aspirated.
Test compounds were dissolved in 100% DMSO and then diluted 1:25 in VCAM Cell Adhesion Assay Buffer (4 mM CaCl2, 4 mM MgCl2 in 50 mM TRIS-HCl, pH 7.5) (final DMSO=4%). […] 100 μl/well of each dilution was added to the VCAM-coated plates, followed by 100 μl of Ramos cells (200,000 cells/well in 1% BSA/PBS). […] Plates were inverted to remove non-adherent cells, blotted and 300 μl/well PBS added. Plates were again inverted, blotted and the remaining buffer gently aspirated. 100 μl Lysis Buffer (0.1% SDS in 50 mM TRIS-HCl, pH 8.5) was added to each well and agitated for 2 min on a rotary shaking platform.
COc1ccc(C[C@@H]2C(=O)N(c3ccc(C[C@H](NC(=O)C4(CCNC(C)=O)CCCC4)C(=O)O)cc3)C(c3ccc(Cl)cc3)N2C(C)=O)cc1 (single isomer, unassigned) [Example 286] showed an IC50 of 24 nM.
With COc1ccc(C[C@@H]2C(=O)N(c3ccc(C[C@H](NC(=O)C4(CCNC(C)=O)CCCC4)C(=O)O)cc3)C(CCc3ccccc3)N2C(C)=O)cc1 (single isomer, unassigned) [Example 293] the IC50 was 40 nM.
With CC(=O)NCCC1(C(=O)N[C@@H](Cc2ccc(N3C(=O)[C@@H](Cc4cccnc4)N(C(C)=O)C3c3ccccc3)cc2)C(=O)O)CCCC1 (single isomer, unassigned) [Example 299] the IC50 was 1.7 nM.
With CC(=O)NCCC1(C(=O)N[C@@H](Cc2ccc(N3C(=O)[C@@H](Cc4ccccc4)N(C(C)=O)C3c3ccccc3)cc2)C(=O)O)CCCC1 (single isomer, unassigned) [Example 311] the IC50 was 3 nM.
CCCC(=O)N1C(c2ccc(Cl)cc2)N(c2ccc(C[C@H](NC(=O)C3(CCNC(C)=O)CCCC3)C(=O)O)cc2)C(=O)[C@H]1Cc1ccccc1 (single isomer, unassigned) [Example 322] showed an IC50 of 5 nM.
With CCCC(=O)N1C(c2ccccc2)N(c2ccc(C[C@H](NC(=O)C3(CCNC(C)=O)CCCC3)C(=O)O)cc2)C(=O)[C@H]1C (single isomer, unassigned) [Example 344] the IC50 was 19 nM.
In the case of CCCC(=O)N1C(c2ccc(Cl)cc2)N(c2ccc(C[C@H](NC(=O)C3(CCNC(C)=O)CCCC3)C(=O)O)cc2)C(=O)[C@H]1C (single isomer, unassigned) [Example 351], the IC50 is reported as 13 nM.
In the case of COc1ccc(CC2(C(=O)N[C@@H](Cc3ccc(NC(=O)c4c(Cl)cccc4Cl)cc3)C(=O)O)CCCC2)cc1 [Example 43, 4-[[(2,6-Dichlorophenyl)carbonyl]amino]-N-[[1-[(4-methoxyphenyl)methyl]cyclopentyl]carbonyl]-L-phenylalanine], the IC50 is reported as 36.5 nM.
With Cn1nnnc1-c1ccc(CC2(C(=O)N[C@@H](Cc3ccc(NC(=O)c4c(Cl)cccc4Cl)cc3)C(=O)O)CCCC2)cc1 [Example 55] the IC50 was 18.5 nM.
Compound Cn1nnnc1-c1cccc(CC2(C(=O)N[C@@H](Cc3ccc(NC(=O)c4c(Cl)cccc4Cl)cc3)C(=O)O)CCC2)c1 [Example 56] has an IC50 of 31.5 nM.
Compound COCCC1(C(=O)N[C@@H](Cc2ccc(NC(=O)c3c(Cl)cccc3Cl)cc2)C(=O)O)CCCC1 [Example 59] has an IC50 of 13.5 nM.
COC(=O)NC(=O)NCCC1(C(=O)N[C@@H](Cc2ccc(NC(=O)c3c(Cl)cccc3Cl)cc2)C(=O)O)CCCC1 [Example 189] showed an IC50 of 130 nM.
O=C(NCCC1(C(=O)N[C@@H](Cc2ccc(NC(=O)c3c(Cl)cccc3Cl)cc2)C(=O)O)CCCC1)Nc1ccccc1[N+](=O)[O-] [Example 190] gave an IC50 of 650 nM.
O=C(NCCC1(C(=O)N[C@@H](Cc2ccc(NC(=O)c3c(Cl)cccc3Cl)cc2)C(=O)O)CCCC1)NCc1ccccc1 [Example 191] was tested, and the IC50 was 322 nM.
Work on CSCCCCC1(C(=O)N[C@@H](Cc2ccc(NC(=O)c3c(Cl)cccc3Cl)cc2)C(=O)O)CCCC1 [Example 260] yielded an IC50 of 130 nM.
[N-]=[N+]=NCCCCC1(C(=O)N[C@@H](Cc2ccc(NC(=O)c3c(Cl)cccc3Cl)cc2)C(=O)O)CCCC1 [Example 261] gave an IC50 of 184 nM.
Compound CS(=O)(=O)CCCCC1(C(=O)N[C@@H](Cc2ccc(NC(=O)c3c(Cl)cccc3Cl)cc2)C(=O)O)CCCC1 [Example 263] has an IC50 of 5 nM.
CC(=O)NCCCC1(C(=O)N[C@@H](Cc2ccc(NC(=O)c3c(Cl)cccc3Cl)cc2)C(=O)O)CCCC1 [Example 276, N-[[1-(3-(Acetylamino)propyl]cyclopenyl]carbonyl]-4-[[(2,6-dichlorophenyl)carbonyl]amino]-L-phenylalanine] was tested, and the IC50 was 22 nM.

Same assay, conditions: Conc. 10 nM; Ramos cell adhesion to VCAM-1
Compound CCCC(=O)N1C(Cc2ccc(OC)cc2)C(=O)N(c2ccc(CC(NC(=O)C3(CCNC(C)=O)CCCC3)C(=O)O)cc2)C1c1ccc(Cl)cc1 (single isomer, unassigned) [Example 288] has an inhibition at 0.01 µM of 92%.
Compound COc1ccc(CC2C(=O)N(c3ccc(CC(NC(=O)C4(CCNC(C)=O)CCCC4)C(=O)O)cc3)C(c3ccc(Cl)cc3)N2C(=O)COc2ccccc2)cc1 (single isomer, unassigned) [Example 291] has an inhibition at 0.01 µM of 48%.
CCCC(=O)N1C(Cc2ccccc2)C(=O)N(c2ccc(CC(NC(=O)C3(CCNC(C)=O)CCCC3)C(=O)O)cc2)C1c1ccccc1 (single isomer, unassigned) [Example 313] showed an inhibition at 0.01 µM of 68%.
Work on CC(=O)NCCC1(C(=O)NC(Cc2ccc(N3C(=O)C(Cc4ccccc4)N(C(=O)COc4ccccc4)C3c3ccccc3)cc2)C(=O)O)CCCC1 (single isomer, unassigned) [Example 317] yielded an inhibition at 0.01 µM of 17%.
Compound CC(=O)NCCC1(C(=O)NC(Cc2ccc(N3C(=O)C(Cc4ccccc4)N(C(C)=O)C3c3ccc(Cl)cc3)cc2)C(=O)O)CCCC1 (single isomer, unassigned) [Example 319] has an inhibition at 0.01 µM of 68%.
Compound CCCC(=O)N1C(Cc2ccccc2)C(=O)N(c2ccc(CC(NC(=O)C3(CCNC(C)=O)CCCC3)C(=O)O)cc2)C1c1ccc(Cl)cc1 (single isomer, unassigned) [Example 321] has an inhibition at 0.01 µM of 59%.
With CC(=O)NCCC1(C(=O)NC(Cc2ccc(N3C(=O)C(C)N(C(C)=O)C3c3ccccc3)cc2)C(=O)O)CCCC1 (single isomer, unassigned) [Example 342] the inhibition at 0.01 µM was 24%.
Work on CC(=O)NCCC1(C(=O)NC(Cc2ccc(N3C(=O)C(C)N(C(=O)COc4ccccc4)C3c3ccccc3)cc2)C(=O)O)CCCC1 (single isomer, unassigned) [Example 349] yielded an inhibition at 0.01 µM of 58%.
CCCC(=O)N1C(Cc2cccnc2)C(=O)N(c2ccc(CC(NC(=O)C3(CCNC(C)=O)CCCC3)C(=O)O)cc2)C1c1ccccc1 (centres unmarked) [Example 300] showed an inhibition at 0.01 µM of 32%.
Work on CC(=O)NCCC1(C(=O)NC(Cc2ccc(N3C(=O)C(Cc4cccnc4)N(C(C)=O)C3c3ccc(Cl)cc3)cc2)C(=O)O)CCCC1 (centres unmarked) [Example 303] yielded an inhibition at 0.01 µM of 70%.
Compound CCCC(=O)N1C(Cc2cccnc2)C(=O)N(c2ccc(CC(NC(=O)C3(CCNC(C)=O)CCCC3)C(=O)O)cc2)C1c1ccc(Cl)cc1 (centres unmarked) [Example 304] has an inhibition at 0.01 µM of 35%.

Same assay, conditions: IC50 in Ramos Cell Based Assay (nM), Calcein-AM labeled Ramos cells, VCAM-1 coated plates, 45 min at room temperature
Cn1nnnc1-c1ccc(CC2(C(=O)N[C@@H](Cc3ccc(NC(=O)c4c(Cl)cccc4Cl)cc3)C(=O)O)CCC2)cc1 [Example 57] gave an IC50 of 27 nM.
CC(C)(C)C(=O)NCCC1(C(=O)N[C@@H](Cc2ccc(NC(=O)c3c(Cl)cccc3Cl)cc2)C(=O)O)CCCC1 [Example 156, 4-[[(2,6-dichlorophenyl)carbonyl]amino]-N-[[1-[2-[[N-(1,1-dimethylethyl)carbonyl]amino]ethyl]cyclopentyl]carbonyl]-L-phenylalanine] gave an IC50 of 28 nM.
NC(=O)NCCC1(C(=O)N[C@@H](Cc2ccc(NC(=O)c3c(Cl)cccc3Cl)cc2)C(=O)O)CCCC1 [Example 188] showed an IC50 of 36 nM.
Compound CSCCCCC1(C(=O)N[C@@H](Cc2ccc(NC(=O)c3c(Cl)cccc3Cl)cc2)C(=O)O)CCCC1 [Example 260] has an IC50 of 94 nM.
Compound N#CCCCCC1(C(=O)N[C@@H](Cc2ccc(NC(=O)c3c(Cl)cccc3Cl)cc2)C(=O)O)CCCC1 [Example 262] has an IC50 of 39 nM.
